How the values were obtained:
Assay in all cases: relative viability (nuclei count vs DMSO), 5 days (fraction); higher = more cells survive
CUDC-101 + Lapatinib = compound: C#Cc1cccc(Nc2ncnc3cc(OC)c(OCCCCCCC(=O)NO)cc23)c1 [CUDC-101] + CS(=O)(=O)CCNCc1ccc(-c2ccc3ncnc(Nc4ccc(OCc5cccc(F)c5)c(Cl)c4)c3c2)o1 [Lapatinib] (partner 2 µM)
Outline: (§1)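 Lung cancer cell lines, seeded in 1536-well plates, were treated the following day by pin tool with a single drug or with five library-drug doses (not always all listed) in √10 steps on top of a fixed anchor-drug dose. Cells were fixed and nuclei stained in one step after 5 days, and nuclei were counted. Relative viability is the nuclei count for treated wells divided by that for vehicle wells, reported as medians of duplicate plates.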

Vandetanib + Navitoclax = compound: COc1cc2/c(=N/c3ccc(Br)cc3F)nc[nH]c2cc1OCC1CCN(C)CC1 [Vandetanib] + CC1(C)CCC(c2ccc(Cl)cc2)=C(CN2CCN(c3ccc(C(=O)NS(=O)(=O)c4ccc(N[C@H](CCN5CCOCC5)CSc5ccccc5)c(S(=O)(=O)C(F)(F)F)c4)cc3)CC2)C1 [Navitoclax] (partner 0.5 µM)
Outline: as §1

Vandetanib + Pictilisib = compound: COc1cc2/c(=N/c3ccc(Br)cc3F)nc[nH]c2cc1OCC1CCN(C)CC1 [Vandetanib] + CS(=O)(=O)N1CCN(Cc2cc3nc(-c4cccc5[nH]ncc45)nc(N4CCOCC4)c3s2)CC1 [Pictilisib] (partner 1 µM)
Outline: as §1

Vandetanib + Alpelisib = compound: COc1cc2/c(=N/c3ccc(Br)cc3F)nc[nH]c2cc1OCC1CCN(C)CC1 [Vandetanib] + Cc1nc(NC(=O)N2CCC[C@H]2C(N)=O)sc1-c1ccnc(C(C)(C)C(F)(F)F)c1 [Alpelisib] (partner 2 µM)
Outline: as §1

Cell Line: UMC-11
- relative viability (CUDC-101 + Lapatinib; first compound 0.01 µM): 1.05
- relative viability (CUDC-101 + Lapatinib; first compound 0.03162 µM): 0.968
- relative viability (CUDC-101 + Lapatinib; first compound 0.1 µM): 0.724
- relative viability (CUDC-101 + Lapatinib; first compound 0.3162 µM): 0.711
- relative viability (CUDC-101 + Lapatinib; first compound 1 µM): 0.126
- relative viability (Vandetanib + Navitoclax; first compound 0.02 µM): 0.312
- relative viability (Vandetanib + Navitoclax; first compound 0.06325 µM): 0.311
- relative viability (Vandetanib + Navitoclax; first compound 0.2 µM): 0.286
- relative viability (Vandetanib + Navitoclax; first compound 0.6325 µM): 0.308
- relative viability (Vandetanib + Navitoclax; first compound 2 µM): 0.309
- relative viability (Vandetanib + Pictilisib; first compound 0.02 µM): 0.75
- relative viability (Vandetanib + Pictilisib; first compound 0.06325 µM): 0.78
- relative viability (Vandetanib + Pictilisib; first compound 0.2 µM): 0.694
- relative viability (Vandetanib + Pictilisib; first compound 0.6325 µM): 0.667
- relative viability (Vandetanib + Pictilisib; first compound 2 µM): 0.857
- relative viability (Vandetanib + Alpelisib; first compound 0.02 µM): 0.897
- relative viability (Vandetanib + Alpelisib; first compound 0.06325 µM): 0.975
- relative viability (Vandetanib + Alpelisib; first compound 0.2 µM): 0.905
- relative viability (Vandetanib + Alpelisib; first compound 0.6325 µM): 0.908
- relative viability (Vandetanib + Alpelisib; first compound 2 µM): 0.922

Reference: the supplement of paper PMC10307832
